Tests used:
PDE7A1 = target: T1, PDE7A1 (Homo sapiens, UniProt Q13946); assay: PDE7 activity and inhibition assay (HPLC detection of cAMP and AMP); format: biochemical; conditions: inhibitor final concentration 0.1 μg/μl; substrate cAMP; 90 minutes
T1 construct: purchased CALBIOCHEM 524751
Description: The activity of PDE7A1 was determined in an enzymatic assay as described below, using: • Enzyme: 0.005 U/μl PDE7A1 (Cat.#: 524751, CALBIOCHEM) • Substrate: 0.0008 μg/μl cAMP (Lot.#: BCBF5219V, SIGMA-ALDRICH) • Buffer: 10 mM Tris-HCl, pH 7.5 • Inhibitor as mentioned above: 0.3 μg/μl as a result final concentration 0.1 μg/μl
An example of the enzymatic assay for determining the activity of PDE7A1 is illustrated in FIG. 2. Briefly, substrate (10 μl), PDE7A1 (10 μl), and buffer (10 μl; as a control) were placed in an eppendorf tube in a total volume of 30 μl and immediately (at 0 minute) injected into HPLC (L-7420, HITACHI) and the contents of cAMP and AMP in the reaction mixture were detected at 254 nm under the following conditions:
Solvent: 0.2M NaH2PO4, 25 mM TBA-HS, 15% ACN, pH6
The peak areas of the cAMP and AMP were measured.
90 minutes later, the control mixture was injected again into the HPLC apparatus and the peak areas of cAMP and AMP were measured as described above and compared with that of the initial injection.
Reaction mixtures containing each of the four inhibitors (10 μl) in the same total volume were injected into the HPLC apparatus following the same procedure as described above and the peak areas of cAMP and AMP were measured and compared with that of the control sample. The percentages of inhibition were calculated.

PDE1 = PDE1 activity and inhibition assay (bis-p-nitrophenyl phosphate, OD 405 nm); format: biochemical; conditions: inhibitor final concentration 0.125 μg/μl; substrate bis-p-nitrophenyl phosphate
Description: The activity of PDE1 was determined in an enzymatic assay as described below, using: • Enzyme: 10 μg/μl PDE1 (Lot.#: SLBD8711V, SIGMA-ALDRICH) • Substrate: 0.001 M Bis-p-nitrophenyl phosphate (Lot.#: 021M5003V, SIGMA-5 ALDRICH) • Buffer: 0.1M Tris-HCl, pH 8.9 • Inhibitor (trans-aconitic acid (TAA), Calycosin, Kaempferol 3-O-rutinoside, and Wogonin): 1 μg/μl (final concentration 0.125 μg/μl)
An example of the enzymatic assay is illustrated in FIG. 1. Briefly, substrate (50 μl) and buffer (200 μl) were placed in a plastic disposable cuvette (Cat.#: BL6224, Basic Life). PDE1 (100 μl) and each of the four inhibitors (50 μl) or the buffer (50 μl) as a control were then added into the cuvette. The total volume of the reaction mixture is 400 μl. After incubating the enzymatic reaction mixture for a suitable period of time, the optical density was detected by a spectrophotometer at a wave length of 405 nm (U-3300, HITACHI). The optical densities of the reaction mixtures containing the inhibitors were compared with that of the control mixture and the percentages of inhibition were calculated.

T1 sequence (Q13946 whole entry): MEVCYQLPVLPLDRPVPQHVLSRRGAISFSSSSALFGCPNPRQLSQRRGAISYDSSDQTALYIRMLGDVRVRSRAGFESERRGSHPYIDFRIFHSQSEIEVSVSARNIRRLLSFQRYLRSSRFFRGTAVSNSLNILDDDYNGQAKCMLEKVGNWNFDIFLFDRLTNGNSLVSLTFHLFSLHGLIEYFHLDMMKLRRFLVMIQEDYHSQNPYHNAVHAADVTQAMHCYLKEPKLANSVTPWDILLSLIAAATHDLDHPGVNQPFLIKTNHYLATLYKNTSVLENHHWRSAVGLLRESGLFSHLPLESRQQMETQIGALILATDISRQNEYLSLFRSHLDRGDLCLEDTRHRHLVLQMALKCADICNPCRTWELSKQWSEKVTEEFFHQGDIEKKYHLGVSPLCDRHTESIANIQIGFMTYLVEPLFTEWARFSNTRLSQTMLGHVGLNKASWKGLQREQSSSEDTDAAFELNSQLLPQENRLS

For `O=C(O)/C=C(\CC(=O)O)C(=O)O` [TAA, trans-aconitic acid], the “inhibitory activity against PDE7A1 (percentage of inhibition, FIG. 3)” value (PDE7A1) was “specifically inhibits PDE7A1” and the “inhibitory activity against PDE1 (percentage of inhibition, FIG. 3)” value (PDE1) was “not PDE1”.

Source: patent US9610268B2, “Trans-aconitic acid compounds and uses thereof for inhibiting phosphodiesterase 7” (Academia Sinica, priority 2013, dated 2017)
